The text below walks through data of patent US7795314B2, “Protective role of semapimod in necrotizing enterocolitis” (Cytokine PharmaSciences, Inc., priority 2005, dated 2010).

The subject of assay [1] is p38 MAP kinase. The experiment in a line: Activation (phosphorylation) of p38 MAP kinase in IEC-6 cells, Western blotting pp38/p38. It is filed as cell-based, rat. On the procedure:
The rat intestinal crypt cell line IEC-6 was purchased from the American Type Culture Collection (ATCC, Manassas, Va.). Cells were grown in tissue culture medium consisting of Dulbeco's modified Eagle's medium with 4.5 gm/L glucose (Bio-Whittaker, Walkersville, Md.) supplemented with 5% fetal bovine serum (Bio-Whittaker), 0.02 mM glutamine (GIBCO; Grand Island, N.Y.), 0.1 U/ml insulin, 100 U/ml penicillin, and 100 μg/ml streptomycin (GIBCO) at 37° C. and 10% CO2. Cells were pretreated with semapimod (0.1-10 μM solutions prepared in 5% dextrose) followed by short exposure to LPS (5 μg/ml), peroxynitrite (ONOO^−, 50 μM) or cytomix (a combination of tumor necrosis factor (TNFα, 10 ng/ml), interleukin-1β (IL-β, 1 ng/ml), and interferon-gamma (IFNγ, 1000 U/ml) for 10 min. Preparation of the ONOO^− solution and cell treatment was as previously reported (36). The lysates were collected for Western blotting analysis as follows: proteins were extracted for 10 min at 4° C. witih lysis buffer (20 mM Tris pH 8.0, 150 mM NaCl, 1% NP-40, 0.5% sodium deoxycholate, 0.1% sodium dodecylsulfate) supplemented with protease and phosphatase inhibitors: 1 mM PMSF, 1 mM benzamidine, 50 μg/ml aprotinin, 0.5 mM Na3VO4, 20 mM NaF, and 0.5 mM phenylarsine oxide. Aliquots containing 50 μg total protein were resolved by SDS-polyacrylamide gel electrophoresis. Gels were electroblotted onto nitrocellulose membranes. Following 1 hr incubation in blocking solution (phosphate-buffered saline, 0.1% Tween-20, 2% fish gelatin, pH 7.5), membranes were incubated with primary (phospho-p38 and p38) and secondary horseradish peroxidase-conjugated antibodies as recommended by manufacturers. Membranes were then impregnated with luminol reagent and exposed to x-ray film.
(a) Rat intestinal epithelial cells (IEC-6) were pretreated with different doses of the drug (0.1-10 μM) for 1 hr. prior to stimulation with 5 μg/ml LPS for 10 min or (b) were pretreated with semapimod (5 μM) for 1 hr. prior to stimulation with 5 μg/ml LPS or ONOO^− (50 μM) for 10 min. The protein lysates were then collected and Western blotting analysis for phospho-p38 and p38 (loading control) was performed as described in Methods. (a) A representative blot for pp38/p38 and densitometric analysis showing the ratio of pp38/p38 band intensity. Ctrl are non-stimulated cells. Results in graph bars are the mean±S.E.M. (n=3 independent experiments, *P<0.05 vs. LPS treated cells without pretreatment with semapimod, analyzed by one-way ANOVA followed by Fisher's LSD Test).
The present inventors have previously shown that LPS causes rapid but transient activation of p38 MAP kinase as determined by increased phosphorylation of p38. […] The effect of semapimod on p38 activation by inflammatory mediators other than LPS was evaluated.

Assay [2] relates to iNOS. As to the kind of experiment: Western blotting of ileal mucosal scrapings, NEC model. It is filed as in vivo, rat. The note with it: FFH animals, 0.75 mg/kg IP daily, day 4, FIG. 5a. Here is the method: (§1) All the experiments were carried out according to an animal protocol approved by the Animal Research and Care Committee (ARCC) of the Children's Hospital of Pittsburgh. Pregnant time-dated Sprague-Dawley rats (Charles River Labs, Wilmington, Mass.) were induced at term using a subcutaneous injection (1 to 2 U per animal) of Pitocin® (Monarch Pharmaceuticals, Bristol, Tenn.). Immediately after birth, the neonates were weighed and randomized into one of the different treatment groups. Group 1 consisted of neonatal rats left with their mother, and thus were breast-fed. […]
(§2) Newborn rats were sacrificed as indicated and segments of the terminal ileum were isolated. […] Protein concentration in the supernatant was determined using the bicinchoninic acid (BCA) Protein Assay kit form Sigma (St. Louis, Mo.) with bovine serum albumin as standard. […]

Assay [3] relates to COX-2. The description is as above. It is filed as in vivo, rat. Conditions: FFH animals, 0.75 mg/kg IP daily, day 4, FIG. 5b. On the procedure:
as §1, §2

Assay [4] concerns endotoxin-induced TNF release and shock. The note with it: adult male Lewis rats, icv. vs intravenous; cited from earlier work.
The test system of assay [5] is formula-feeding/hypoxia-mediated intestinal injury (experimental NEC). The experiment in a line: Animal model of NEC: incidence of NEC and morphologic evaluation of terminal ileum. It is filed as in vivo, Sprague-Dawley rats (newborn). The note with it: FFH newborn rats. On the procedure: as §1
Newborn rats separated from their mothers were fed a conventional formula and exposed to hypoxia after administration of the drug semapimod (0.1-1 mg/kg, i.p.) as described in Methods. […] Incidence of NEC was calculated as the percentage of animals displaying pathology scores higher than 0 as assessed by histology. Results in graph bars are the mean±S.E.M. (n=15-45 animals for each group, *P<0.05 vs. FFH without semapimod, analyzed by one-way ANOVA followed by Fisher's LSD Test).

Assay [6] relates to Bax. As to the kind of experiment: Western blotting of ileal mucosal scrapings, NEC model. It is filed as in vivo, rat. The note with it: FFH pups, 0.75 mg/kg IP daily, day 4, FIG. 4b. On the procedure:
as §1, §2

Assay [7] concerns Bad. Described as above. It is filed as in vivo, rat. Conditions: FFH pups, 0.75 mg/kg IP daily, day 4, FIG. 4a. On the procedure: as §1, §2
Assay [8] relates to HMGB1. The description is as above. It is filed as in vivo, rat. The note with it: FFH+semapimod vs FFH, day 4, 30 kDa band, FIG. 3a. On the procedure: as §1, §2
Assay [9] relates to RAGE. The assay is described as above. Conditions: FFH+semapimod vs FFH, day 4, 45 and 25 kDa bands, FIG. 3c. Type of assay: in vivo, rat. On the procedure: as §1, §2
Setting [10] is: 0.1-10 μM pretreatment 1 hr, then 5 μg/ml LPS 10 min, FIG. 6a.

Take `C/C(=N\NC(=N)N)c1cc(NC(=O)CCCCCCCCC(=O)Nc2cc(/C(C)=N/NC(=N)N)cc(/C(C)=N/NC(=N)N)c2)cc(/C(C)=N/NC(=N)N)c1` [semapimod]: the “phosphorylation of p38 induced by ONOO−” value in assay [1] (5 μM semapimod pretreatment 1 hr, ONOO− 50 μM 10 min, FIG. 6b) was “not inhibited”. In assay [1] (setting [10]), the “concentrations with maximal effect on LPS-induced phosphorylation of p38” value is reported as “higher than 1 μM” and the “phosphorylation of p38 induced by LPS” value was “dose dependently inhibited”. For the same compound, in assay [1] (semapimod pretreatment, cytomix 10 min (not shown)), the “p38 activation by a mixture of TNFα, IL-1β and IFN-γ” value was “failed to inhibit”. The “expression of iNOS protein in terminal ileum” value in assay [2] was “significantly decreased”. Also, in assay [3], the “expression of COX-2 protein in terminal ileum” value is “significantly decreased”. Also, in assay [4], the “effectiveness of icv. administration in suppressing endotoxin-induced TNF release and shock as compared with intravenous” value is 100,000 fold. For the same compound, in assay [5] (0.75 mg/kg i.p., day 4, FIG. 3b, 0.75 mg/kg), the “severity of intestinal injury / morphology as assessed by histology” value is listed as “decrease in the severity of injury”. In addition, in [5] (semapimod 0.1-1 mg/kg i.p. daily, terminal ileum day 4, FIG. 2), the “doses that prevented intestinal damage (reduction in the incidence of NEC)” value is “higher than 0.5 mg/kg”. In addition, in [6], the “expression of Bax protein in mucosal scrapings” value is “significantly decreased”. Moreover, in [7], the “expression of Bad protein in mucosal scrapings” value was “significantly decreased”. For the same compound, the “HMGB1 protein expression in ileal mucosa” value in [8] was “reduced after administration of semapimod”. In addition, the “expression of RAGE in ileal mucosal scrapings” value in assay [9] is “expression of RAGE was reduced”.
